Assay results taken from ChEMBL document CHEMBL1201862, “PubChem BioAssay data set” (2004).
Activity calls are given as the source filed them.

Columns and labels:
cells [1] = assay: cells
[2] = Late stage counterscreen for inhibitors of Trypanosoma brucei methionyl tRNA synthetase (MetRS): Luminescence-based cell-based high throughput dose response assay to identify compounds that are cytotoxic to Jurkat human T lymphocyte cells.; type: functional
[3] = Artemis endonuclease inhibitor potency, dose response, biochemical, fluorescence intensity (AID 720701); type: functional;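 further: Artemis endonuclease enzyme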
Bcl-2-like protein 10 = Bcl-2-like protein 10 (Homo sapiens, UniProt Q9HD36); assay: displacers of TR3 peptide from Bcl-B, primary screen, selectivity assay for Bfl-1 inhibitor project, biochemical, fluorescence polarization, FITC-TR3 peptide (AID 748);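 further: fluorescence polarization from a fluorescein-labelled TR3 peptide binding purified Bcl-B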
Bcl-2-like protein 10, sequence (Q9HD36 whole entry): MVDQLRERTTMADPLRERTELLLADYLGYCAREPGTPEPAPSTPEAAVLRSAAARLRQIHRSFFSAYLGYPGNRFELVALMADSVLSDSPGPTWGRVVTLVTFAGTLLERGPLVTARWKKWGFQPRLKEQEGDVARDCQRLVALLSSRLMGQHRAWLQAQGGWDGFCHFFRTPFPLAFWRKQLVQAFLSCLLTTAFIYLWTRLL

[4] = cytotoxicity toward DRD oncogenic fibroblasts, dose response, cell-based, non-viral oncogenic, luminescence (AID 1934); type: functional; conditions: Homo sapiens
BJ [5] = assay: cytotoxicity toward BJ-TERT fibroblasts, dose response, cell-based, RAS-independent, luminescence (AID 1933); type: functional; conditions: Homo sapiens
BJ [6] = assay: cytotoxicity toward BJ-TERT-LT-ST fibroblasts, dose response, cell-based, RAS-independent, luminescence (AID 1935); type: functional; conditions: Homo sapiens;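 further: BJ fibroblasts immortalized with TERT plus LT and ST oncogenes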
[7] = HepG2 cell cytotoxicity, dose response, cytotoxicity control, dry powder samples (AID 720568); type: functional, cell-based
[8] = HEK293 cell cytotoxicity, dose response, cytotoxicity control, dry powder samples (AID 720567); type: functional, cell-based
BJ [9] = assay: cells; type: functional, cell-based; conditions: Homo sapiens
[10] = biological target: Protein disulfide-isomerase A6 (Homo sapiens, UniProt Q15084); assay: inhibitors of ERp5-mediated insulin aggregation, dose response, biochemical, turbidity, absorbance 650 nm, cherry-picked samples (AID 720566)
Protein disulfide-isomerase A6, sequence (Q15084 whole entry, the tested form may be a part): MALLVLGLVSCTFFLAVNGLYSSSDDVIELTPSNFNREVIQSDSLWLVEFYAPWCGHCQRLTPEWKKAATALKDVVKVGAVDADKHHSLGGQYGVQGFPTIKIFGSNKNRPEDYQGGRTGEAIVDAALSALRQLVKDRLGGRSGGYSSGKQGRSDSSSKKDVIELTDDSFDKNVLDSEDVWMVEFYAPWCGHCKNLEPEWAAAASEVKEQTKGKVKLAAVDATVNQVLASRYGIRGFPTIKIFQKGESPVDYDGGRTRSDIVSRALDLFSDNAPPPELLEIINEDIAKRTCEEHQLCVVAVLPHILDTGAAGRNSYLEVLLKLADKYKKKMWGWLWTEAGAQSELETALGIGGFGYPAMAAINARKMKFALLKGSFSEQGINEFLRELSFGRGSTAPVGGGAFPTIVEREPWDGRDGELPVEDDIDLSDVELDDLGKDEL

[11] = biological target: T1, Runt-related transcription factor 1/Core-binding factor subunit beta (Homo sapiens, UniProt Q01196+Q13951); assay: inhibitors of RUNX1 Runt–CBFb-SMMHC binding, primary screen, biochemical, FRET, Cerulean-Runt, Venus-CBFb-SMMHC, uHTS (AID 1434); type: protein assay;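 further: partner is the CBFb-SMMHC leukemia fusion protein rather than wild-type CBFb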
T1 sequence (Q01196 whole entry, the tested form may be a part): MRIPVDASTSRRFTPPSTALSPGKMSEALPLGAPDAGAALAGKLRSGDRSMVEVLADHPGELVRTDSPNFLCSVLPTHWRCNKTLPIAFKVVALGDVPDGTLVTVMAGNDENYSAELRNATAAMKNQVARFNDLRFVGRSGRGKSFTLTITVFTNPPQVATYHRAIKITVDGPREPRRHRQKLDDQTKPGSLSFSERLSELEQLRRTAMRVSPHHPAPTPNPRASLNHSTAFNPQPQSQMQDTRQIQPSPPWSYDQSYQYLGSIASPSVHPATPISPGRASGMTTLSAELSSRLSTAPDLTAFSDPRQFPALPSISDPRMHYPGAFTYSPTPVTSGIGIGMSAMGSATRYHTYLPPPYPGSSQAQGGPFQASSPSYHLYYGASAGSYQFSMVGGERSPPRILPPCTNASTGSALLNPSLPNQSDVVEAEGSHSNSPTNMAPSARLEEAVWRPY
T1 sequence (Q13951 whole entry, the tested form may be a part): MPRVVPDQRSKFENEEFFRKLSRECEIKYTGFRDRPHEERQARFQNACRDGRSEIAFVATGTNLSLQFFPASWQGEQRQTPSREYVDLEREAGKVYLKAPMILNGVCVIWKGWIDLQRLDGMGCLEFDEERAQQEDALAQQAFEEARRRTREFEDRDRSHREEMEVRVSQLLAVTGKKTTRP

cells [12] = conditions: HEK293
[13] = biological target: T1, Runt-related transcription factor 1/Core-binding factor subunit beta; assay: inhibitors of RUNX1 Runt–CBFb-SMMHC binding, biochemical, TR-FRET (AID 1438); type: protein assay
cells [14] = conditions: A549

Compound: O=C(O)c1ccc(-c2ccc(/C=C3\NC(=O)N(Cc4ccc(Cl)cc4)C3=O)o2)cc1
- AC50 (cells [1]): 1.78 µM (active)

Compound: O=C(CC=NOCc1ccc([N+](=O)[O-])cc1)Nc1ccc(Br)cc1
- IC50 [2]: > 83.3 µM (inactive)

Compound: Cc1cc(OCC(=O)Nc2ccc(N3CCCC3)cc2)cc(C)c1Cl
- IC50 [3]: > 20 µM (inactive)
- IC50 (Bcl-2-like protein 10): > 100 µM (inactive)

Compound: COc1cc(C(=O)NCCOc2cc(C)cc(C)c2)cc(OC)c1OC
- EC50 [4]: 4.9 µM (active)
- EC50 (BJ [5]): 16.3 µM (active)
- EC50 (BJ [6]): 17.1 µM (inconclusive)
- AC50 [7]: 24.7 µM (active)
- AC50 [8]: 16.9 µM (active)
- EC50 (BJ [9]): 5.25 µM (active)

Compound: Cc1cc(OCCCCOc2ccc(S(N)(=O)=O)c(C)c2)ccc1S(N)(=O)=O
- AC50 [10]: 45.5 µM (active)

Compound: COc1ccc(C2c3ccc(O)cc3Oc3ncn4nc(-c5ccccn5)nc4c32)cc1 (stereo not given)
- IC50 [11]: 22.9 µM (active)
- AC50 (cells [12]): > 24 µM (inactive)
- IC50 [13]: > 100 µM (inactive)
- AC50 (cells [14]): > 52 µM (inactive)
